# According to patent publication US8772499B2, “TRPV3 modulators” (AbbVie Inc., priority 2011, dated 2014):
# Read-outs that look alike come from different tables or passages of the source.
# Key:
# human TRPV3 = molecular target: T1, human TRPV3 (Homo sapiens, UniProt Q8NET8); assay: In vitro antagonism of recombinant human TRPV3 activation (FLIPR Tetra calcium assay); assay type: cell-based; details: HEK293 cells stably expressing human TRPV3, agonist 2-APB at 80 μM
# T1 construct: expressed in transfected cells
# T1 sequence (Q8NET8 1-790): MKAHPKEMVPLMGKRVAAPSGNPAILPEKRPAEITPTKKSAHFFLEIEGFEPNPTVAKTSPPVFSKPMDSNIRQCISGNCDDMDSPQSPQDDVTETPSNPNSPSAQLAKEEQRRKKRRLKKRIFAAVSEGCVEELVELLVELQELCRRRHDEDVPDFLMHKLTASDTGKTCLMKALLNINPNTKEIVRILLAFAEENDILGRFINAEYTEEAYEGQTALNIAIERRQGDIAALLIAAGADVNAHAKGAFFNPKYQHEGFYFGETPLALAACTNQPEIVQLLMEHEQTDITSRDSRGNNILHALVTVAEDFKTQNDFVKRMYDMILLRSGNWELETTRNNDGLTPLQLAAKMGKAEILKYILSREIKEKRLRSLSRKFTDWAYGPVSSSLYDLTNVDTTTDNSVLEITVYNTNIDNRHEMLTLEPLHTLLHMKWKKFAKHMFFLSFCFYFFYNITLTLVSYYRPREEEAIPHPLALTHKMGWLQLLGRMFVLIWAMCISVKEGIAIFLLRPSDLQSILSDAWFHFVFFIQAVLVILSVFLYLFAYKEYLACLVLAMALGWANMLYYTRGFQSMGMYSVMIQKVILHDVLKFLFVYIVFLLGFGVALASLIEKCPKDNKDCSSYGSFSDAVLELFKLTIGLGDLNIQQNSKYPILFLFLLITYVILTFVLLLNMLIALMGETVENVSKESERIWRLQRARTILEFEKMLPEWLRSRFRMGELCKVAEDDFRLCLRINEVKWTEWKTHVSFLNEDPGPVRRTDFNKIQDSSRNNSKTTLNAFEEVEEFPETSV
# In short: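 HEK293 cells stably expressing human TRPV3, loaded with Calcium-4 dye for 90–120 min, received compound in DPBS, then 80 μM 2-APB (EC80) 3 min later. Max-minus-min fluorescence expressed as % of 2-APB response without antagonist; IC50 values mostly averages of n≥2 runs.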
# [1] = In vitro human microsomal stability assay; assay type: in vitro ADME; details: human, microsomes, 0.5 h, 0.5 μM, pH 7.4
# Method: (§1) Test compounds were evaluated for metabolic stability in an in vitro rat microsomal stability assay using rat liver microsomes (Sprague-Dawley, from BD Biosciences) and/or an in vitro human microsomal stability assay using human liver microsomes (Xenotech). […] Incubations were carried out at 37° C. with a final incubation volume of 135 μL. […] A 1.5 μL aliquot of reduced nicotine adenine disphosphonucleotide (NADPH) (Chem-Impex Int'L Inc., Lot 12532024) was also added to the time-zero plates.
# [2] = In vitro rat microsomal stability assay; assay type: in vitro ADME, rat (Sprague-Dawley); details: Sprague-Dawley, rat, microsomes, 0.5 h, 0.5 μM, pH 7.4
# Method: as §1
# [3] = actual measured value shown parenthetically, in most cases average of at least two runs, read-out: IC50
# [4] = reported range, read-out: IC50 (range class)
SMILES,IC50 (human TRPV3; [3]) [µM],HUMAN MICROSOMAL STABILITY (% REMAINING AFTER 30 MINUTES) [1] [%],RAT MICROSOMAL STABILITY (% REMAINING AFTER 30 MINUTES) [2] [%],IC50 (human TRPV3; [4]) [µM]
"OC(c1ccccn1)C1(c2ccc(F)c(Cl)c2)CC2(C1)OCCO2 (stereo not shown) [Example 255, [2-(3-chloro-4-fluorophenyl)-5,8-dioxaspiro[3.4]oct-2-yl](pyridin-2-yl)-methanol]",5.49,54,<0.01,
"OC(c1ccccn1)C1(c2ccc(Cl)c(Cl)c2)CCCCC1 (stereo not shown) [Example 43, [1-(3,4-dichlorophenyl)cyclohexyl](pyridin-2-yl)methanol]",0.66,1.8,0.31,0.05 to 0.5
"Nc1cccnc1C(O)C1(c2cccc(OC(F)(F)F)c2)CCC1 (stereo not shown) [Example 124, (3-aminopyridin-2-yl) {1-[3-(trifluoromethoxy)phenyl]cyclobutyl}methanol]",> 20,1.6,<0.01,> 20
"OC(c1ccccn1)C1(c2ccc(C(F)(F)F)cc2)CC(F)(F)C1 (stereo not shown) [Example 133, {3,3-difluoro-1-[4-(trifluoromethyl)phenyl]cyclobutyl}(pyridin-2-yl)-methanol]",0.12,73,61,
"CC1(O)CC(c2ccc(OC(F)(F)F)cc2)(C(O)c2ccccn2)C1 (single isomer, unassigned) [Example 203]",13.8,>85,74,
"Nc1cccnc1C(O)C1(c2cccc(C(F)(F)F)c2)CCC1 (stereo not shown) [Example 120, (3-aminopyridin-2-yl) {1-[3-(trifluoromethyl)phenyl]cyclobutyl}methanol]",> 20,1.6,<0.01,> 20
"OC1CC(c2ccc(C(F)(F)F)cc2)([C@H](O)c2ccccn2)C1 (mixture of isomers) [Example 166, 3-[(S)-hydroxy(pyridin-2-yl)methyl]-3-[4-(trifluoromethyl)phenyl]-cyclobutanol]",5.94,>85,>85,
"O=C1CC(c2cccc(OC(F)(F)F)c2)([C@H](O)c2ccccn2)C1 (single isomer, unassigned) [Example 256]",2.24,44,55,
"N[C@H]1CCC[C@H]1[C@@H](O)C1(c2ccc(OC(F)(F)F)cc2)CCC1 [Example 229, (R)-[(1R,2S)-2-aminocyclopentyl]{1-[4-(trifluoromethoxy)phenyl]-cyclobutyl}methanol]",4.58,>85,80,
"OC(c1ccccn1)C1(C2CCCOC2)CCC1 (stereo not shown) [Example 281, pyridin-2-yl[1-(tetrahydro-2H-pyran-3-yl)cyclobutyl]methanol]",7.69,>85,0.054,
"O=C1CC(c2cccc(C(F)(F)F)c2)(C(O)c2ccccn2)C1 (stereo not shown) [Example 245, 3-[hydroxy(pyridin-2-yl)methyl]-3-[3-(trifluoromethyl)phenyl]-cyclobutanone]",3.65,57,72,
"OC(C1CCCc2cccnc21)C1(c2cccc(OC(F)(F)F)c2)CCC1 (stereo not drawn) [Example 187, (anti)-5,6,7,8-tetrahydroquinolin-8-yl{1-[3-(trifluoromethoxy)phenyl]-cyclobutyl}methanol]",> 20,<0.01,<0.01,> 20
"OC1CC(c2ccc(F)c(Cl)c2)([C@H](O)c2ccccn2)C1 (stereo partly drawn) [Example 276, 3-(3-chloro-4-fluorophenyl)-3-[(S)-hydroxy(pyridin-2-yl)methyl]-cyclobutanol]",0.2,72,73,
"OC(c1ccccn1)C1(c2ccc(OC(F)(F)F)cc2)CC2(C1)OCCO2 (stereo not shown) [Example 202, pyridin-2-yl{2-[4-(trifluoromethoxy)phenyl]-5,8-dioxaspiro[3.4]oct-2-yl}-methanol]",5.17,73,<0.01,
"OC(C1CCc2cccnc21)C1(c2cccc(OC(F)(F)F)c2)CCC1 (stereo not drawn) [Example 190, (syn)-6,7-dihydro-5H-cyclopenta[b]pyridin-7-yl{1-[3-(trifluoromethoxy)-phenyl]cyclobutyl}methanol]",> 20,3.7,<0.01,> 20
"OC(c1ccccn1)C1(c2ccc(OC(F)(F)F)cc2)CCC1 (stereo not shown) [Example 12, pyridin-2-yl{1-[4-(trifluoromethoxy)phenyl]cyclobutyl}methanol]",0.42,24,11,
"OC(c1ccccn1)C1(c2ccccc2OC(F)(F)F)CCNCC1 (stereo not shown) [Example 142, pyridin-2-yl{4-[2-(trifluoromethoxy)phenyl]piperidin-4-yl}methanol]",> 20,>85,37,> 20
"O[C@H](c1ccccn1)C1(c2ccc(C(F)(F)F)cc2)CC(F)(F)C1 [Example 154, (S)-{3,3-difluoro-1-[4-(trifluoromethyl)phenyl]cyclobutyl}(pyridin-2-yl)-methanol]",0.23,56,78,
"O=C1CC(c2ccnc(C(F)(F)F)c2)([C@H](O)c2ccccn2)C1 [Example 299, 3-[(S)-hydroxy(pyridin-2-yl)methyl]-3-[2-(trifluoromethyl)pyridin-4-yl]-cyclobutanone]",> 20,>85,>85,> 20
"CON=C1CC(c2ccc(OC(F)(F)F)cc2)([C@H](O)c2ccccn2)C1 (stereo partly drawn) [Example 249, (S)-{3-(methoxyimino)-1-[4-(trifluoromethoxy)phenyl]cyclobutyl}(pyridin-2-yl)methanol]",3.93,61,3.2,
"O=C1CC(c2cc(C(F)(F)F)ccn2)([C@H](O)c2ccccn2)C1 [Example 277, 3-[(S)-hydroxy(pyridin-2-yl)methyl]-3-[4-(trifluoromethyl)pyridin-2-yl]-cyclobutanone]",1.97,>85,>85,
